*1 amine or outer side, *2 acyl side, *3 side chain or, on linkers, in order; H or OH if unused. Where a SMILES comes first, the peptide text is derived from it. Bridges are numbered along the chain shown (N, C = ends). [ ]: non-standard residue; d: D form. The star is where a group is joined. hPhe(3,5-F2-4-CF3) = N[C@@H](CCc1cc(F)c(C(F)(F)F)c(F)c1)C(=O)O; hPhe(3-Cl-4-CF3) = N[C@@H](CCc1ccc(C(F)(F)F)c(Cl)c1)C(=O)O; NPrPhe(4-CF3) = CCCN[C@@H](Cc1ccc(C(F)(F)F)cc1)C(=O)O; NMeGly(cPent) = CN[C@H](C(=O)O)C1CCCC1; X13 = CCC[C@](C)(N[*:1])C(=O)[*:2]; NMeD = CN[C@@H](CC(=O)O)C(=O)O; NMeL = CN[C@@H](CC(C)C)C(=O)O; Azetidin(1-yl) = C1CN(*)C1; Morpholide = C1CN(*)CCO1; Ac5c = NC1(C(=O)O)CCCC1; Aze = O=C(O)[C@@H]1CCN1; Sar = CNCC(=O)O
What was measured:
[1] = target: GDP-bound NRAS wild-type protein (Homo sapiens, UniProt P01111); test: Binding to NRAS by surface plasmon resonance (SPR), Single Cycle Kinetics; conditions: for NRAS/KRAS (ratio of KD value with respect to NRAS to KD value with respect to KRAS) / NRAS/KRAS (ratio of KD value for NRAS to KD value for KRAS): GDP-bound NRAS wild-type vs GDP-bound KRAS wild-type
Chain of GDP-bound NRAS wild-type protein (P01111 whole entry): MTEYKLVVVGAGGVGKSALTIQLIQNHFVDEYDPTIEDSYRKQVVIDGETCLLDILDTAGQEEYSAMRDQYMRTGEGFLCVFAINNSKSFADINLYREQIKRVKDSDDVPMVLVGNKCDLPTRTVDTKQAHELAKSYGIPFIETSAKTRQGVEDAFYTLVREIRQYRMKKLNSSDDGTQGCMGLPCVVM

[2] = target: GDP-bound HRAS wild-type protein (Homo sapiens, UniProt P01112); test: Binding to HRAS by surface plasmon resonance (SPR), Single Cycle Kinetics; conditions: for HRAS/KRAS (ratio of KD value with respect to HRAS to KD value with respect to KRAS) / HRAS/KRAS (ratio of KD value for HRAS to KD value for KRAS): GDP-bound HRAS wild-type vs GDP-bound KRAS wild-type
Chain of GDP-bound HRAS wild-type protein (P01112 whole entry): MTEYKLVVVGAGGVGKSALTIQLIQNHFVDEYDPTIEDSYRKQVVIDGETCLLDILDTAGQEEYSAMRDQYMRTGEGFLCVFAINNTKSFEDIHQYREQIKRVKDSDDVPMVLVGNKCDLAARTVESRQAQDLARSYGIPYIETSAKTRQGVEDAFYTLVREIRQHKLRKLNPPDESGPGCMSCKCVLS

[3] = KD ratio NRAS/KRAS, class symbols
[4] = KD ratio HRAS/KRAS, class symbols

CCC[C@H]1C(=O)N[C@@H](C(CC)CC)C(=O)N(C)CC(=O)N(C)[C@H]2C/C=C\CCN(C2=O)[C@@H](Cc2ccc(C)cc2)C(=O)N(C)CC(=O)N[C@@H](CCc2ccc(C(F)(F)F)c(Cl)c2)C(=O)N2C[C@H](OCC)C[C@H]2C(=O)NC2(CC(C)(C)C2)C(=O)N(C)[C@@H](CC(C)C)C(=O)N(C)[C@H](C(=O)N(C)C)CC(=O)N1C [PP2202]
NRAS/KRAS (ratio of KD value with respect to NRAS to KD value with respect to KRAS) ([1]; SPR): A (a compound having 10 or more and less than 20 is denoted as A)
HRAS/KRAS (ratio of KD value with respect to HRAS to KD value with respect to KRAS) ([2]; SPR): A (a compound having 10 or more and less than 20 is denoted as A)

CCCN(C)C(=O)[C@@H]1CC(=O)N(C)[C@@H](CC(F)F)C(=O)N[C@@H]([C@@H](C)CC)C(=O)N(C)CC(=O)N(C)[C@H]2C/C=C\CCN(C2=O)[C@@H](Cc2ccc(C(F)(F)F)cc2)C(=O)N(C)CC(=O)N[C@@H](CCc2cc(F)c(C(F)(F)F)c(F)c2)C(=O)N2C[C@H](OCC)C[C@H]2C(=O)NC2(CCC2)C(=O)N(C)[C@@H](C2CCCC2)C(=O)N1C [PP1700]
NRAS/KRAS (ratio of KD value for NRAS to KD value for KRAS) ([1]; SPR): A (a compound having 10 or more and less than 20 is denoted as A)
HRAS/KRAS (ratio of KD value for HRAS to KD value for KRAS) ([2]; SPR): A (a compound having 10 or more and less than 20 is denoted as A)

CC[C@H](C)[C@@H]1NC(=O)[C@H](C2CC2)N(C)C(=O)C[C@@H](C(=O)N(C)CC)N(C)C(=O)[C@H](C2CCCC2)N(C)C(=O)C2(CC(C)(C)C2)NC(=O)[C@@H]2C[C@H](C)CN2C(=O)[C@H](CCc2ccc(C(F)(F)F)c(OC)c2)NC(=O)CN(C)C(=O)[C@H](Cc2ccc(C(F)(F)F)cc2)N2CC/C=C\C[C@@H](C2=O)N(C)C(=O)CN(C)C1=O [PP2007]
NRAS/KRAS (ratio of KD value for NRAS to KD value for KRAS) ([1]; SPR): AA (a compound having 20 or more is denoted as AA)
HRAS/KRAS (ratio of KD value for HRAS to KD value for KRAS) ([2]; SPR): B (a compound having 3 or more and less than 10 is denoted as B)

CCCN1C(=O)CN(C)C(=O)[C@@H]2CCN2C(=O)[C@H]([C@@H](C)CC)NC(=O)[C@H](CC(C)C)N(C)C(=O)C[C@@H](C(=O)N2CCOCC2)N(C)C(=O)[C@H](C2CCCC2)N(C)C(=O)[C@](C)(CCC)NC(=O)[C@@H]2CCCN2C(=O)[C@H](CCc2cc(F)c(C(F)(F)F)c(F)c2)NC(=O)CN(C)C(=O)[C@@H]1Cc1ccc(C(F)(F)F)cc1 [PP0775] ([NMeL]I[Aze][Sar][NPrPhe(4-CF3)][Sar][hPhe(3,5-F2-4-CF3)]P[X13][NMeGly(cPent)][NMeD]-Morpholide; lactam N-11)
NRAS/KRAS (ratio of KD value with respect to GDP-bound NRAS wild-type protein to KD value with respect to KRAS) ([1]; KD ratio NRAS/KRAS, SPR): B (a compound having 3 or more and less than 10 is denoted as B)
HRAS/KRAS (ratio of KD value with respect to GDP-bound HRAS wild-type protein to KD value with respect to KRAS) ([2]; KD ratio HRAS/KRAS, SPR): B (a compound having 3 or more and less than 10 is denoted as B)

CC[C@H](C)[C@@H]1NC(=O)[C@H](CC(C)C)N(C)C(=O)C[C@@H](C(=O)N2CCCCC2)N(C)C(=O)[C@H](C2CCCC2)N(C)C(=O)C2(CCCC2)NC(=O)[C@@H]2CCCN2C(=O)[C@H](CCc2cc(F)c(C(F)(F)F)c(F)c2)NC(=O)CN(C)C(=O)[C@H](Cc2ccc(C(F)(F)F)cc2)N2CCCC[C@@H](C2=O)N(C)C(=O)CN(C)C1=O [PP0572]
NRAS/KRAS (ratio of KD value with respect to GDP-bound NRAS wild-type protein to KD value with respect to KRAS) ([1]; KD ratio NRAS/KRAS, SPR): B (a compound having 3 or more and less than 10 is denoted as B)
HRAS/KRAS (ratio of KD value with respect to GDP-bound HRAS wild-type protein to KD value with respect to KRAS) ([2]; KD ratio HRAS/KRAS, SPR): B (a compound having 3 or more and less than 10 is denoted as B)

CCCN(C)C(=O)[C@@H]1CC(=O)N(C)[C@@H](COCC)C(=O)N[C@@H]([C@@H](C)CC)C(=O)N(C)CC(=O)N(C)[C@H]2C/C=C\CCN(C2=O)[C@@H](Cc2ccc(C(F)(F)F)cc2)C(=O)N(C)CC(=O)N[C@@H](CCc2ccc(C(F)(F)F)c(OC)c2)C(=O)N2C[C@H](OCC)C[C@H]2C(=O)NC2(CCC2)C(=O)N(C)[C@@H](C2CCCC2)C(=O)N1C [PP2015]
NRAS/KRAS (ratio of KD value for NRAS to KD value for KRAS) ([1]; SPR): A (a compound having 10 or more and less than 20 is denoted as A)
HRAS/KRAS (ratio of KD value for HRAS to KD value for KRAS) ([2]; SPR): B (a compound having 3 or more and less than 10 is denoted as B)

CCC[C@H]1C(=O)N[C@@H]([C@@H](C)CC)C(=O)N(C2CC2)CC(=O)N(C)[C@H]2C/C=C\CCN(C2=O)[C@@H](Cc2ccc(C)cc2)C(=O)N(C)CC(=O)N[C@@H](CCc2cc(F)c(C(F)(F)F)c(F)c2)C(=O)N2C[C@H](OCC)C[C@H]2C(=O)NC2(CC(C)(C)C2)C(=O)N(C)[C@@H](CC(C)(C)C)C(=O)N(C)[C@H](C(=O)N(C)C)CC(=O)N1C [PP2718]
NRAS/KRAS (ratio of KD value with respect to GDP-bound NRAS wild-type protein to KD value with respect to KRAS) [1, 3]: A (a compound having 10 or more and less than 20 is denoted as A)
HRAS/KRAS (ratio of KD value with respect to GDP-bound HRAS wild-type protein to KD value with respect to KRAS) [2, 4]: A (a compound having 10 or more and less than 20 is denoted as A)

CCO[C@@H]1C[C@H]2C(=O)NC3(CC(C)(C)C3)C(=O)N(C)[C@@H](C(CC)CC)C(=O)N(C)[C@H](C(=O)N(C)C)CC(=O)N(C)[C@@H](CC3CC3)C(=O)N[C@@H]([C@@H](C)CC)C(=O)N(C)CC(=O)N(C)[C@H]3C/C=C\CCN(C3=O)[C@@H](Cc3ccc(C(F)(F)F)cc3)C(=O)N(C)CC(=O)N[C@@H](CCc3cc(F)c(C(F)(F)F)c(F)c3)C(=O)N2C1 [PP2119]
NRAS/KRAS (ratio of KD value with respect to NRAS to KD value with respect to KRAS) ([1]; SPR): A (a compound having 10 or more and less than 20 is denoted as A)
HRAS/KRAS (ratio of KD value with respect to HRAS to KD value with respect to KRAS) ([2]; SPR): B (a compound having 3 or more and less than 10 is denoted as B)

CCCN1C(=O)CN(C)C(=O)CN(C)C(=O)[C@H]([C@@H](C)CC)NC(=O)[C@H](CC(C)C)N(C)C(=O)C[C@@H](C(=O)N2CCC2)N(C)C(=O)[C@H](C2CCCC2)N(C)C(=O)C2(CCCC2)NC(=O)[C@@H]2CCCN2C(=O)[C@H](CCc2ccc(C(F)(F)F)c(Cl)c2)NC(=O)CN(C)C(=O)[C@@H]1Cc1ccc(C(F)(F)F)cc1 [PP0172] ([NMeL]I[Sar][Sar][NPrPhe(4-CF3)][Sar][hPhe(3-Cl-4-CF3)]P[Ac5c][NMeGly(cPent)][NMeD]-{Azetidin(1-yl)}; lactam N-11)
NRAS/KRAS (ratio of KD for GDP-bound NRAS wild-type to KD for KRAS) ([1]; KD ratio NRAS/KRAS, SPR): B (a compound having 3 or more and less than 10 is denoted as B)
HRAS/KRAS (ratio of KD for GDP-bound HRAS wild-type to KD for KRAS) ([2]; KD ratio HRAS/KRAS, SPR): C (A compound having a KD ratio of 0.1 or more and less than 3 is denoted as C)

CCCOC[C@H]1C(=O)N[C@@H]([C@@H](C)CC)C(=O)N2CCC[C@H]2C(=O)N(C)[C@H]2C/C=C\CCN(C2=O)[C@@H](CC2CCC(F)(F)CC2)C(=O)N(C)CC(=O)N[C@@H](CCc2ccc(C(F)(F)F)c(OC)c2)C(=O)N2C[C@H](OCC)C[C@H]2C(=O)N(C)C2(CCC2)C(=O)N(C)[C@@H](C2CCCC2)C(=O)N(C)[C@H](C(=O)N(C)C)CC(=O)N1C [PP2357]
NRAS/KRAS (ratio of KD value with respect to NRAS to KD value with respect to KRAS) ([1]; SPR): A (a compound having 10 or more and less than 20 is denoted as A)
HRAS/KRAS (ratio of KD value with respect to HRAS to KD value with respect to KRAS) ([2]; SPR): B (a compound having 3 or more and less than 10 is denoted as B)

CCC[C@H]1C(=O)N[C@@H]([C@@H](C)CC)C(=O)N(C2CC2)CC(=O)N(C)[C@H]2C/C=C\CCN(C2=O)[C@@H](Cc2ccc(C)cc2)C(=O)N(C)CC(=O)N[C@@H](CCc2ccc(Cl)c(Cl)c2)C(=O)N2C[C@H](OCC)C[C@H]2C(=O)NC2(CC(C)(C)C2)C(=O)N(C)[C@@H](C2CCCC2)C(=O)N(C)[C@H](C(=O)N(C)C)CC(=O)N1C [PP2559]
NRAS/KRAS (ratio of KD value with respect to GDP-bound NRAS wild-type protein to KD value with respect to KRAS) [1, 3]: A (a compound having 10 or more and less than 20 is denoted as A)
HRAS/KRAS (ratio of KD value with respect to GDP-bound HRAS wild-type protein to KD value with respect to KRAS) [2, 4]: A (a compound having 10 or more and less than 20 is denoted as A)

CCC[C@H]1C(=O)N[C@@H]([C@@H](C)CC)C(=O)N(C)CC(=O)N(C)[C@H]2C/C=C\CCN(C2=O)[C@@H](Cc2ccc(C)cc2)C(=O)N(C)CC(=O)N[C@@H](CCc2ccc3sc(F)c(C)c3c2)C(=O)N2C[C@H](OCC)C[C@H]2C(=O)NC2(CC(C)(C)C2)C(=O)N(C)[C@@H](C2CCCC2)C(=O)N(C)[C@H](C(=O)N(C)C)CC(=O)N1C [PP2949]
NRAS/KRAS (ratio of KD value with respect to GDP-bound NRAS wild-type protein to KD value with respect to KRAS) [1, 3]: A (a compound having 10 or more and less than 20 is denoted as A)
HRAS/KRAS (ratio of KD value with respect to GDP-bound HRAS wild-type protein to KD value with respect to KRAS) [2, 4]: A (a compound having 10 or more and less than 20 is denoted as A)

CC[C@H](C)[C@@H]1NC(=O)[C@H](CC(F)F)N(C)C(=O)C[C@@H](C(=O)N(C)CC)N(C)C(=O)[C@H](C2CCCC2)N(C)C(=O)C2(CC(C)(C)C2)NC(=O)[C@@H]2C[C@H](C)CN2C(=O)[C@H](CCc2ccc(C(F)(F)F)c(Cl)c2)NC(=O)CN(C)C(=O)[C@H](Cc2ccc(C)cc2)N2CC/C=C\C[C@@H](C2=O)N(C)C(=O)CN(C)C1=O [PP1911]
NRAS/KRAS (ratio of KD value for NRAS to KD value for KRAS) ([1]; SPR): A (a compound having 10 or more and less than 20 is denoted as A)
HRAS/KRAS (ratio of KD value for HRAS to KD value for KRAS) ([2]; SPR): A (a compound having 10 or more and less than 20 is denoted as A)

CCCO[C@@H]1C[C@H]2C(=O)N(C)C3(CC(C)(C)C3)C(=O)N(C)[C@@H](C(CC)CC)C(=O)N(C)[C@H](C(=O)N(C)C)CC(=O)N(C)[C@@H](COC)C(=O)N[C@@H]([C@@H](C)CC)C(=O)N(C)CC(=O)N(C)[C@H]3C/C=C\CCN(C3=O)[C@@H](Cc3ccc(C)cc3)C(=O)N(C)CC(=O)N[C@@H](CCc3ccc(Cl)c(Cl)c3)C(=O)N2C1 [PP2812]
NRAS/KRAS (ratio of KD value with respect to GDP-bound NRAS wild-type protein to KD value with respect to KRAS) [1, 3]: AA (a compound having 20 or more is denoted as AA)
HRAS/KRAS (ratio of KD value with respect to GDP-bound HRAS wild-type protein to KD value with respect to KRAS) [2, 4]: A (a compound having 10 or more and less than 20 is denoted as A)
